According to patent US20250346599A1, “TRICYCLIC PHTHALAZINONE PARP INHIBITORS AND METHODS OF USE” (Valo Health, Inc., priority 2022, published 2025):

Tests used:
[1] = target: human MDR1 (P-glycoprotein; P-gp) (Homo sapiens (Human), UniProt P08183); assay: bi-directional MDCK-MDR1 permeability assay; type: in vitro ADME
Text: The bi-directional assay containing a Mandin Darby canine kidney (MDCK) cell line transfected with human MDR1 gene (P-glycoprotein; P-gp) designed to overexpress the MDR1 efflux transporter, a major efflux transporter at the blood brain barrier (BBB), uses an established method that measures the rate of flux of a compound across polarized cell monolayers. As well appreciated in the art, the data generated from the MDCK-MDR1 permeability assay may be used to predict in vivo absorption of drugs. The bi-directional MDCK-MDR1 permeability assay can identify and quantify levels of active efflux. Screening compounds in both the apical to basolateral direction (A→B) and basolateral to apical direction (B→A) across the cell monolayer provides a ratio of B→A/A→B (efflux ratio; “ER”). Unlike the Caco-2 assay, the MDCK-MDR1 assay is not subject to potential efflux interference by breast cancer resistance protein (BCRP). […] The data may further be used to predict blood brain barrier (BBB) permeability via calculation from the data of log(permeability-surface area product) (“log PS”), well-understood to be predictive of the in vivo log([brain concentration]/[plasma concentration]).

PARP1 enzyme = PARP1 enzyme (Homo sapiens (Human), UniProt P09874); assay: PARP Mass Spectroscopy Assay (PARP1 enzymatic assay, nicotinamide detection); type: biochemical; conditions: 5 nM PARP1, 5 uM β-NAD, 60 min at RT, NAM by mass spectrometry
PARP1 enzyme, sequence (P09874 whole entry): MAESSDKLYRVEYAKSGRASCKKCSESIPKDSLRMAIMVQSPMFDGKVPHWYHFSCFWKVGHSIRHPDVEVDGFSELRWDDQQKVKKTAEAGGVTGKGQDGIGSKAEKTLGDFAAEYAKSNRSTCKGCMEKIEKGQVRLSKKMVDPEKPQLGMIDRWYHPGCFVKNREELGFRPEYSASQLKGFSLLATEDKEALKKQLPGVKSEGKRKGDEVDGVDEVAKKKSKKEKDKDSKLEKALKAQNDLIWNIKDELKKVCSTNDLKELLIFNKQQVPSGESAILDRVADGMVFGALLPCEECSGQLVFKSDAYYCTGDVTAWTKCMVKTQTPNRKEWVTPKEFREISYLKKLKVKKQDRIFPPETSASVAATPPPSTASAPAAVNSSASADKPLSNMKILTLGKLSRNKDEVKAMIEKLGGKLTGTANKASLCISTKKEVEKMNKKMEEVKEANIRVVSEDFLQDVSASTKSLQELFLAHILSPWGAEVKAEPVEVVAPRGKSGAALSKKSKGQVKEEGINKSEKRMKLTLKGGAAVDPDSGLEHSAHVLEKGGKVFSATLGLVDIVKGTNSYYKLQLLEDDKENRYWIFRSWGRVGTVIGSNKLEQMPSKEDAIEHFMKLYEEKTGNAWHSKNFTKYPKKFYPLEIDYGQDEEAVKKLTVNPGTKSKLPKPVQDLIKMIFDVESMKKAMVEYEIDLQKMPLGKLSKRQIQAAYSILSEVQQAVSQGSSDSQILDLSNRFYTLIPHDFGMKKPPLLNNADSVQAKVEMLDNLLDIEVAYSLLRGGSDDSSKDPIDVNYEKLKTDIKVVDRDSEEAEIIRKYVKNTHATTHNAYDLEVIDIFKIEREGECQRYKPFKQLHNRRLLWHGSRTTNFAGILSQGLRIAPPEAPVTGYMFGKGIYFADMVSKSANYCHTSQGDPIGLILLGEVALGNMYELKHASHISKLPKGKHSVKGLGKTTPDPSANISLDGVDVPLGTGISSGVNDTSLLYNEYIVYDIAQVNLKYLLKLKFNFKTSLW
Text: Materials and Reagents: The PARP1 enzyme was purchased from BPS Bioscience (cat #80501). Tris-HCl, pH 8.0 was purchased from Corning (cat #46-031-CM). Magnesium chloride was purchased from Thermo Fisher Scientific (previously Honeywell Fluka, cat #63020-1L). All other assay components, activated DNA (cat #D4522), core histones (cat #SRP6590), β-Nicotinamide adenine dinucleotide (β-NAD—cat #N8285), 3ABA PARP1 small molecule inhibitor (from the PARP1 Enzyme Activity Assay kit, cat #17-10149), Sodium Chloride (NaCl, cat #56546-1L), Triton X-100 (cat #93443), Dithiothreitol (DTT, cat #43816-250 ML) were all purchased from Millipore Sigma.
Assay Buffer: The assay buffer includes the following reagents: 50 mM Tris-HCl pH 8.0, 50 mM NaCl, 10 mM, MgCl2, 0.01% Triton X-100, and 1 mM DTT.
PARP1 enzymatic assays were performed in 384-well plates in a total volume of 20 μL in the assay buffer. For concentration response curves, compounds were serially diluted 3-fold from 2 mM highest concentration […] to generate a 10-point curve, and 125 nL was transferred to the assay plate using the Echo acoustic dispenser for a final concentration range of 26.6 μM to […] in 10 μL reaction. Five microliters of 10 nM PARP1 enzyme and 100 nM core histones (2×) mix were added to the assay plates and pre-incubated for 30 mins at room temperature (RT). The reaction was initiated by the addition of a 5 μL of 10 uM β-NAD plus 0.02 mg/mL activated DNA (2×) mix. The reaction is incubated for 60 min at RT. The final concentration of the PARP1 enzyme and substrate concentrations were 5 nM and 5 uM, respectively. The positive control (high signal) and negative control (low signal) wells had 125 nL of DMSO in place of compounds. After the incubation is complete, the reaction is stopped by the addition of 10 μL of 10 uM of the 3ABA PARP1 inhibitor, incubated for 5 min at RT, and placed in the −80 C freezer for shipment to the Valo Health site in Branford Connecticut where mass spectrometry will be used to directly detect quantities of nicotinamide (NAM).
The percent inhibition of enzyme activity was calculated according to the following equation: […]
The values of Ssample, Shigh, and Slow in the equation refer to the NAM concentration detected in the assay wells, high control wells, and low control wells, respectively. To determine inhibitor IC50 values, % inhibition of the CRCs (concentration response curves) was fitted to the standard single-site four-parameter logistic equation.

[2] = apical to basolateral direction

human MDR1 (P-glycoprotein; P-gp), sequence (P08183 whole entry): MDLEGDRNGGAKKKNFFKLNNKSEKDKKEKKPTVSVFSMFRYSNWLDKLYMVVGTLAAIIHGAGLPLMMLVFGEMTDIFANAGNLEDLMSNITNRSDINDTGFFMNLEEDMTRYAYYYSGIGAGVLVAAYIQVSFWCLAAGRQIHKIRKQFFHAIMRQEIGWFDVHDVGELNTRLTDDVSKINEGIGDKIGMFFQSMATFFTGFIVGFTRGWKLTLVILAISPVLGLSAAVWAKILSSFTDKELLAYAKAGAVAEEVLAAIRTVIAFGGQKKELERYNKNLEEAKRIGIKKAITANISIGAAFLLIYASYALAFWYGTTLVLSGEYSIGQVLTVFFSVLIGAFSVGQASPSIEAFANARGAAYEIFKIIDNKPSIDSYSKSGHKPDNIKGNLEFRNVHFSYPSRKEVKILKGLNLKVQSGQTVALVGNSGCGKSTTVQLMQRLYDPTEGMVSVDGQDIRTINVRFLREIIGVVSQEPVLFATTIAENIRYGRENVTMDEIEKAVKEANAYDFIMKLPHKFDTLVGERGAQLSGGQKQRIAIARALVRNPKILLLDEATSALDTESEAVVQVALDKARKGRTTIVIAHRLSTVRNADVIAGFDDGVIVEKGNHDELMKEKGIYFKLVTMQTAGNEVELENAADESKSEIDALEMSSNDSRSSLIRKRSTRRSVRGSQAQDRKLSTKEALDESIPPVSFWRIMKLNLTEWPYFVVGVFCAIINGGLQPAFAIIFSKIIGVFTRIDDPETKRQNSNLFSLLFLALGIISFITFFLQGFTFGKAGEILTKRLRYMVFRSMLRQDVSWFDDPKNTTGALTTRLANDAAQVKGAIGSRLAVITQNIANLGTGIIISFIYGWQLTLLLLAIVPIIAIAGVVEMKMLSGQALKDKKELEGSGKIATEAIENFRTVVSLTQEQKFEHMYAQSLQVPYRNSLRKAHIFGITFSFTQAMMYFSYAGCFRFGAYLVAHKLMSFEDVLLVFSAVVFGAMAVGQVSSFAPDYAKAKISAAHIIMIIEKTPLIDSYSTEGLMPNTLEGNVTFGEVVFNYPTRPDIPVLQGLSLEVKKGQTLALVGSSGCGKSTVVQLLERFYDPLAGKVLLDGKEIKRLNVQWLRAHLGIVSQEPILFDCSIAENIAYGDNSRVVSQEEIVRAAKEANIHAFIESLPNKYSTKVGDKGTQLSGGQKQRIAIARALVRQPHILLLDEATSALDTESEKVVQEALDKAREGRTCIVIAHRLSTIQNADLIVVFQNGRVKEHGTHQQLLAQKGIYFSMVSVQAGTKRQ

Row | SMILES | MDCK-MDR1 Papp A→B (10^−6 cm/s) [1, 2] | MDCK-MDR1 ER ([1]; efflux ratio B→A/A→B) | IC50 (PARP1 enzyme) [nM] | further results
1 | CC(=O)N1CCC([C@@H]2Nc3cc(F)cc4c(=O)[nH]nc(c34)[C@H]2c2ccccc2Cl)CC1 [Compound 0223B] | 0.685 10^−6 cm/s | 37 | 9 | –
2 | CC[C@@H]1Nc2cc(F)cc3c(=O)[nH]nc(c23)[C@H]1c1ccccc1Cl [Compound 0206A, (11S,12S)-12-(2-chlorophenyl)-11-ethyl-7-fluoro-2,3,10-triazatricyclo[7.3.1.0^{5,13}]trideca-1,5(13),6,8-tetraen-4-one] | 13.4 10^−6 cm/s | 0.695 | 9 | –
3 | C[C@H]1Nc2cc(F)cc3c(=O)[nH]nc(c23)[C@@H]1c1ccc(Cl)c(F)c1 [Compound 0195A, (8R,9R)-9-(4-chloro-3-fluorophenyl)-5-fluoro-8-methyl-2,7,8,9-tetrahydro-3H-pyrido[4,3,2-de]phthalazin-3-one] | – | – | 21 | Papp A→B ([1]; dog, MDCK-MDR1, apical to basolateral direction): 13.9 ×10⁻⁶ cm/s; efflux ratio ([1]; human, MDCK-MDR1, efflux ratio B→A/A→B, read-out: MDCK-MDR1 ER): 0.699
4 | C[C@@H]1Nc2cc(F)cc3c(=O)[nH]nc(c23)[C@H]1c1ncnn1C [Compound 0201B] | 0.567 10^−6 cm/s | 24.7 | – | –
5 | O=c1[nH]nc2c3c(cc(F)cc13)N[C@@H](C1CC1)[C@@H]2c1ccccc1Cl [Compound 0207A, (11S,12S)-12-(2-chlorophenyl)-11-cyclopropyl-7-fluoro-2,3,10-triazatricyclo[7.3.1.0^{5,13}]trideca-1,5(13),6,8-tetraen-4-one] | 9.65 10^−6 cm/s | 0.741 | 64 | –
6 | O=c1[nH]nc2c3c(cc(F)cc13)N[C@H]([C@H]1CCOC1)[C@H]2c1ccc(F)cc1F [Compound 0115A] | 8.3 10^−6 cm/s | 1.73 | 10 | –
7 | O=c1[nH]nc2c3c(cc(F)cc13)N[C@H](C1CC1)[C@H]2c1ccccc1Cl [Compound 0207B, (11R,12R)-12-(2-chlorophenyl)-11-cyclopropyl-7-fluoro-2,3,10-triazatricyclo[7.3.1.0^{5,13}]trideca-1,5(13),6,8-tetraen-4-one] | 14.4 10^−6 cm/s | 0.532 | 6 | –
8 | O=c1[nH]nc2c3c(cc(F)cc13)N[C@H]([C@H]1CCOC1)[C@H]2c1ccccc1Cl [Compound 0121A] | 5.66 10^−6 cm/s | 3.06 | 32 | –
9 | CC[C@@H]1Nc2cc(F)cc3c(=O)[nH]nc(c23)[C@H]1c1ncnn1C [Compound 0202B] | 0.77 10^−6 cm/s | 28.5 | – | –
10 | Cn1ncnc1[C@H]1CNc2cc(F)cc3c(=O)[nH]nc1c23 [Compound 0200B] | 1.2 10^−6 cm/s | 12.3 | – | –
11 | O=c1[nH]nc2c3c(cc(F)cc13)N[C@@H](C1CCN(C3CCC(F)(F)CC3)CC1)[C@@H]2c1ccc(Cl)cc1F [Compound 0256A] | 5.76 10^−6 cm/s | 3.37 | – | –
12 | N#Cc1ccc([C@H]2c3n[nH]c(=O)c4cc(F)cc(c34)N[C@@H]2C2CCC(F)(F)CC2)cc1F [Compound 0214A] | – | – | 108 | –
13 | O=c1[nH]nc2c3c(cc(F)cc13)N[C@H](CF)[C@H]2c1ccc(Cl)cc1F [Compound 0252B] | – | – | 8 | –
14 | CC(=O)N1CCC([C@@H]2Nc3cc(F)cc4c(=O)[nH]nc(c34)[C@H]2c2ncnn2C)CC1 [Compound 0218B] | 0.335 10^−6 cm/s | 3.98 | – | –
15 | O=c1[nH]nc2c3c(cc(F)cc13)N[C@@H](c1c(F)cc(F)cc1F)[C@@H]2C1CCNCC1 [Compound 0098B] | – | – | 30 | –
16 | Cn1ncnc1[C@@H]1c2n[nH]c(=O)c3cc(F)cc(c23)N[C@H]1C1CCN(C2CCC(F)(F)CC2)CC1 [Compound 0266A] | – | – | 1680 | –
17 | Cn1ncnc1[C@H]1c2n[nH]c(=O)c3cc(F)cc(c23)N[C@@H]1C1CCN(C2CCC(F)(F)CC2)CC1 [Compound 0266B] | – | – | 5780 | –

Row | SMILES | MDCK-MDR1 Papp A→B (10^−6 cm/s) [1, 2] | MDCK-MDR1 ER ([1]; efflux ratio B→A/A→B) | IC50 (PARP1 enzyme) [nM] | further results
18 | CC1Nc2cc(F)cc3c(=O)[nH]nc(c23)C1c1ccc(Cl)c(F)c1 (centres unmarked) [Compound 0195-5, 9-(4-chloro-3-fluorophenyl)-5-fluoro-8-methyl-2,7,8,9-tetrahydro-3H-pyrido[4,3,2-de]phthalazin-3-one] | – | – | 18 | –
19 | O=c1[nH]nc2c3c(cc(F)cc13)N[C@@H]([C@@H]1CCOC1)[C@@H]2c1ccc(F)cc1F [Compound 0115D] | 4.94 10^−6 cm/s | 4.28 | – | –
20 | O=c1[nH]nc2c3c(cc(F)cc13)NC(C1CCOC1)C2c1ccccc1Cl (centres unmarked) [Compound 0121-4] | – | – | 39 | –
21 | O=c1[nH]nc2c3c(cc(F)cc13)N[C@@H]([C@H]1CCOC1)[C@@H]2c1ccccc1Cl [Compound 0121C] | – | – | 854 | –
22 | Cn1ncnc1[C@@H]1c2n[nH]c(=O)c3cc(F)cc(c23)N[C@H]1C1CC1 [Compound 0203B] | 0.568 10^−6 cm/s | 21.7 | – | –
23 | O=c1[nH]nc2c3c(cc(F)cc13)N[C@@H](C1CCN(C3CCC(F)(F)CC3)CC1)[C@@H]2c1ccccc1Cl [Compound 0261B] | – | – | 301 | –
24 | O=c1[nH]nc2c3c(cc(F)cc13)NC(C1CCN(C3CCC(F)(F)CC3)CC1)C2c1ccc(F)cc1F (centres unmarked) [Compound 0271-6] | – | – | 4 | –
25 | C[C@@H]1Nc2cc(F)cc3c(=O)[nH]nc(c23)[C@H]1c1ccccc1Cl [Compound 0172B, (8S,9S)-9-(2-chlorophenyl)-5-fluoro-8-methyl-2,7,8,9-tetrahydro-3H-pyrido[4,3,2-de]phthalazin-3-one] | – | – | 18 | –
26 | CN1CCC[C@H]([C@H]2CNc3cc(F)cc4c(=O)[nH]nc2c34)C1 [Compound 0191B] | – | – | 37 | –
27 | Cn1ncnc1[C@H]1c2n[nH]c(=O)c3cc(F)cc(c23)N[C@@H]1C1CCC(F)(F)CC1 [Compound 0215A] | 0.373 10^−6 cm/s | 33.3 | – | –
28 | O=c1[nH]nc2c3c(cc(F)cc13)NC(C1CCCN1)C2c1ccccc1Cl (centres unmarked) [Compound 0181-6] | – | – | 1200 | –
29 | O=c1[nH]nc2c3c(cc(F)cc13)NC(C1(F)CC1)[C@H]2c1ccccc1Cl (some centres unmarked) [Compound 0260B] | – | – | 106 | –
30 | CN1CCCC[C@@H]1[C@H]1CNc2cc(F)cc3c(=O)[nH]nc1c23 [Compound 0192B] | – | – | 22 | –
31 | CN1CCC[C@H]([C@H]2CNc3cc(F)cc4c(=O)[nH]nc2c34)C1 [Compound 0191-8] | – | – | 46 | –
32 | N#Cc1ccc([C@@H]2CNc3cc(F)cc4c(=O)[nH]nc2c34)c(F)c1 [Compound 0187A] | – | – | 9 | –
33 | N#Cc1ccc([C@@H]2c3n[nH]c(=O)c4cc(F)cc(c34)N[C@H]2C2CCC(F)(F)CC2)cc1F [Compound 0214B] | – | – | 20 | –
34 | CC(=O)N1CCC([C@H]2Nc3cc(F)cc4c(=O)[nH]nc(c34)[C@@H]2c2ccccc2Cl)CC1 [Compound 0223A] | – | – | 1200 | –
